According to patent publication US20080096947A1, “Parenteral Forms Of Administration Of Imexon And Method For The Production Thereof” (Heidelberg Pharma AG, priority 2004, published 2008):
Entries after “also recorded” stand apart in the source; their conditions may differ.

Assays:
[1] = Solubility of imexon in water; assay type: physicochemical
[2] = Stability of imexon in aqueous solution; assay type: physicochemical; conditions: aziridine ring opens, isomerises to water-insoluble products
[3] = Stability of imexon in organic solvents; assay type: physicochemical
[4] = background statement; therapeutically effective dosages only intravenously; cited from earlier work

solubility in water [1]: highly soluble in water
stability in organic solvents ([3]; some organic solvents, in contrast to water): remains stable over a prolonged period
Compound: N=C1NC(=O)N2CC12 (centres unmarked) [Imexon, 4-imino-1,3-diazabicyclo-(3.1.0)-hexane-2-one]
stability in water / aqueous solutions [2]: not stable; also recorded: decomposes in aqueous solutions after a short period
stability of solution in DMSO ([3]; DMSO): stable solution of imexon can be produced
bioavailability [4]: low bioavailability
